Source: patent US12344610B2, “APOL1 inhibitors and methods of use” (Maze Therapeutics, Inc., priority 2022, dated 2025)
pEC50: −log10 of the molar value.

System: Trypanosoma brucei Lister 427 VSG221 with APOL1 G1 recombinant protein
Assay: APOL1 G1 trypanosome cell rescue assay (Example B5)
Format: cell-based
Conditions: Trypanosoma brucei, 20 h, read-out: APOL1 G1 Trypanosome Rescue EC50, Trypanosoma brucei Lister 427 VSG221 with APOL1 G1 recombinant protein, 20 hours, CellTiter-Glo; geometric mean of at least 2 assay runs; † = single assay run
Procedure, shortened: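 Viability read by CellTiter-Glo luminescence after 20 h co-incubation (37° C, 5% CO2) of 250 trypanosomes/well in modified HMI-9 with test compound (duplicate 11-point, 2-fold dilutions, 0.4% DMSO) and APOL1 protein, […]. Protein: mature residues 28-398, E. coli inclusion-body refolded, tag cleaved, in DDM.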

SMILES	pEC50
C[C@@H](COc1ccc(S(C)(=O)=O)cc1)N1CCC2(CC1)C(=O)Nc1ccc(Cl)cc12 (single isomer, unassigned) [Compound 10]	6.45
C[C@@H](COc1ccc(S(C)(=O)=O)cc1)N1CCC2(CC1)C(=O)Nc1ccccc12 (single isomer, unassigned) [Compound 12]	5.71
C[C@@H](CN1CCC2(CC1)C(=O)Nc1ccccc12)Oc1ccc(S(C)(=O)=O)cc1 (single isomer, unassigned) [Compound 13]	< 5.40
N#Cc1ccc2c(c1)C1(CCN(CCOc3ccc4c(c3)CCN3C(=O)NCC43)CC1)C(=O)N2 (single isomer, unassigned) [Compound 120, (R) or (S)-2-oxo-1′-[2-({3-oxo-1H,2H,3H,5H,6H,10bH-imidazo[4,3-a]isoquinolin-8-yl}oxy)ethyl]-1,2-dihydrospiro[indole-3,4′-piperidine]-5-carbonitrile]	5.90
O=C1CCC2c3ccc(OCCN4CCC5(CC4)C(=O)Nc4ccc(Cl)cc45)cc3CCN12 (single isomer, unassigned) [Compound 122, (S) or (R)-5-chloro-1′-[2-({3-oxo-1H,2H,3H,5H,6H,10bH-pyrrolo[2,1-a]isoquinolin-8-yl}oxy)ethyl]-1,2-dihydrospiro[indole-3,4′-piperidin]-2-one]	6.47
CC(c1ccc(OCCN2CCC3(CC2)C(=O)Nc2ccc(C#N)cc23)cc1)S(C)(=O)=O (single isomer, unassigned) [Compound 134, (S) or (R)-1′-{2-[4-(1-methanesulfonylethyl)phenoxy]ethyl}-2-oxo-1,2-dihydrospiro[indole-3,4′-piperidine]-5-carbonitrile]	6.00
CC(c1c(F)cc(OCCN2CCC3(CC2)C(=O)Nc2ccc(C#N)cc23)cc1F)S(C)(=O)=O (single isomer, unassigned) [Compound 138, (S) or (R)-1′-{2-[3,5-difluoro-4-(1-methanesulfonylethyl)phenoxy]ethyl}-2-oxo-1,2-dihydrospiro[indole-3,4′-piperidine]-5-carbonitrile]	6.23
CC(c1c(F)cc(OCCN2CCC3(CC2)C(=O)Nc2ccc(Cl)cc23)cc1F)S(C)(=O)=O (single isomer, unassigned) [Compound 142, (S) or (R)-5-chloro-1′-{2-[3,5-difluoro-4-(1-methanesulfonylethyl)phenoxy]ethyl}-1,2-dihydrospiro[indole-3,4′-piperidin]-2-one]	7.01
CN=S(C)(=O)c1ccc(OCCN2CCC3(CC2)C(=O)Nc2ccc(Cl)cc23)cc1 (single isomer, unassigned) [Compound 148, (S) or (R)-5-chloro-1′-(2-{4-[methyl(methylimino)oxo-λ^6-sulfanyl]phenoxy}ethyl)-1,2-dihydrospiro[indole-3,4′-piperidin]-2-one]	6.70
CN=S(C)(=O)c1ccc(OCCN2CCC3(CC2)C(=O)Nc2ccc(C#N)cc23)cc1 (single isomer, unassigned) [Compound 151, (S) or (R)-1′-(2-{4-[methyl(methylimino)oxo-λ^6-sulfanyl]phenoxy}ethyl)-2-oxo-1,2-dihydrospiro[indole-3,4′-piperidine]-5-carbonitrile]	5.88
O=C1Nc2ccc(Cl)cc2C12CCN(CCOc1ccc(C3CCCS3(=O)=O)cc1)CC2 (single isomer, unassigned) [Compound 176, (S) or (R)-2-[4-(2-{5-chloro-2-oxo-1,2-dihydrospiro[indole-3,4′-piperidin]-1′-yl}ethoxy)phenyl]-1λ^6-thiolane-1,1-dione]	6.75
CS(=O)(=O)c1ccc(OCCN2CCC3(CC2)C(=O)Nc2c(C#N)cc(Cl)cc23)cc1 [Compound 9, 5-chloro-1′-[2-(4-methanesulfonylphenoxy)ethyl]-2-oxo-1,2-dihydrospiro[indole-3,4′-piperidine]-7-carbonitrile]	< 5.40
CS(=O)(=O)CCCn1ncc2cc(OCCN3CCC4(CC3)C(=O)Nc3ccc(Cl)cc34)ccc21 [Compound 14, 5-chloro-1′-(2-{[1-(3-methanesulfonylpropyl)-1H-indazol-5-yl]oxy}ethyl)-1,2-dihydrospiro[indole-3,4′-piperidin]-2-one]	6.31
O=C1Nc2ccc(Cl)cc2C12CCN(CCOc1ccc3c(cnn3C3COC3)c1)CC2 [Compound 15, 5-chloro-1′-(2-{[1-(oxetan-3-yl)-1H-indazol-5-yl]oxy}ethyl)-1,2-dihydrospiro[indole-3,4′-piperidin]-2-one]	6.47
CC(C)n1ncc2cc(OCCN3CCC4(CC3)C(=O)Nc3ccc(Cl)cc34)ccc21 [Compound 16, 5-chloro-1′-(2-{[1-(propan-2-yl)-1H-indazol-5-yl]oxy}ethyl)-1,2-dihydrospiro[indole-3,4′-piperidin]-2-one]	6.51
O=C1Nc2ccc(Cl)cc2C12CCN(CCOc1ccc(S(=O)(=O)[C@H]3C[C@@H](O)C3)cc1)CC2 [Compound 17, 5-chloro-1′-[2-(4-{[(cis)-3-hydroxycyclobutyl]sulfonyl}phenoxy)ethyl]-1,2-dihydrospiro[indole-3,4′-piperidin]-2-one]	6.83
O=C1CCc2cc(OCCN3CCC4(CC3)C(=O)Nc3ccc(Cl)cc34)ccc2N1C1COC1 [Compound 99, 5-chloro-1′-(2-{[1-(oxetan-3-yl)-2-oxo-1,2,3,4-tetrahydroquinolin-6-yl]oxy}ethyl)-1,2-dihydrospiro[indole-3,4′-piperidin]-2-one]	6.46
CS(=O)(=O)c1ccc(OCCN2CCC3(CC2)C(=O)Nc2ccc(C#N)cc23)cc1C(F)F [Compound 100, 1′-{2-[3-(difluoromethyl)-4-methanesulfonylphenoxy]ethyl}-2-oxo-1,2-dihydrospiro[indole-3,4′-piperidine]-5-carbonitrile]	6.95
CS(=O)(=O)C1(c2ccc(OCCN3CCC4(CC3)C(=O)Nc3ccc(C#N)cc34)cc2)CC1 [Compound 101, 1′-{2-[4-(1-methanesulfonylcyclopropyl)phenoxy]ethyl}-2-oxo-1,2-dihydrospiro[indole-3,4′-piperidine]-5-carbonitrile]	6.70
CS(=O)(=O)C1(c2ccc(OCCN3CCC4(CC3)C(=O)Nc3ccc(Cl)cc34)cc2)CC1 [Compound 102, 5-chloro-1′-{2-[4-(1-methanesulfonylcyclopropyl)phenoxy]ethyl}-1,2-dihydrospiro[indole-3,4′-piperidin]-2-one]	7.30

Same assay, conditions: read-out: APOL1 G1 Trypanosome Rescue EC50; Trypanosoma brucei Lister 427 VSG221 with APOL1 G1 recombinant protein, 20 hours, CellTiter-Glo; geometric mean of at least 2 assay runs; † = single assay run

SMILES	pEC50
O=C1NCC2c3ccc(OCCN4CCC5(CC4)C(=O)Nc4ccc(Cl)cc45)cc3CCN12 (single isomer, unassigned) [Compound 116, (S) or (R)-5-chloro-1′-[2-({3-oxo-1H,2H,3H,5H,6H,10bH-imidazo[4,3-a]isoquinolin-8-yl}oxy)ethyl]-1,2-dihydrospiro[indole-3,4′-piperidin]-2-one]	6.68
O=C1NCC2c3ccc(OCCN4CCC5(CC4)C(=O)Nc4ccc(Cl)cc45)cc3CCN12 (single isomer, unassigned) [Compound 117, (R) or (S)-5-chloro-1′-[2-({3-oxo-1H,2H,3H,5H,6H,10bH-imidazo[4,3-a]isoquinolin-8-yl}oxy)ethyl]-1,2-dihydrospiro[indole-3,4′-piperidin]-2-one]	6.37
O=C1CCC2c3ccc(OCCN4CCC5(CC4)C(=O)Nc4ccc(Cl)cc45)cc3CCN12 (single isomer, unassigned) [Compound 123, (R) or (S)-5-chloro-1′-[2-({3-oxo-1H,2H,3H,5H,6H,10bH-pyrrolo[2,1-a]isoquinolin-8-yl}oxy)ethyl]-1,2-dihydrospiro[indole-3,4′-piperidin]-2-one]	6.59
CC(c1ccc(OCCN2CCC3(CC2)C(=O)Nc2ccc(C#N)cc23)cc1)S(C)(=O)=O (single isomer, unassigned) [Compound 135, (R) or (S)-1′-{2-[4-(1-methanesulfonylethyl)phenoxy]ethyl}-2-oxo-1,2-dihydrospiro[indole-3,4′-piperidine]-5-carbonitrile]	5.92
CC(c1c(F)cc(OCCN2CCC3(CC2)C(=O)Nc2ccc(C#N)cc23)cc1F)S(C)(=O)=O (single isomer, unassigned) [Compound 139, (R) or (S)-1′-{2-[3,5-difluoro-4-(1-methanesulfonylethyl)phenoxy]ethyl}-2-oxo-1,2-dihydrospiro[indole-3,4′-piperidine]-5-carbonitrile]	6.27
CC(c1c(F)cc(OCCN2CCC3(CC2)C(=O)Nc2ccc(Cl)cc23)cc1F)S(C)(=O)=O (single isomer, unassigned) [Compound 143, (R) or (S)-5-chloro-1′-{2-[3,5-difluoro-4-(1-methanesulfonylethyl)phenoxy]ethyl}-1,2-dihydrospiro[indole-3,4′-piperidin]-2-one]	7.19
CN=S(C)(=O)c1ccc(OCCN2CCC3(CC2)C(=O)Nc2ccc(Cl)cc23)cc1 (single isomer, unassigned) [Compound 149, (R) or (S)-5-chloro-1′-(2-{4-[methyl(methylimino)oxo-λ^6-sulfanyl]phenoxy}ethyl)-1,2-dihydrospiro[indole-3,4′-piperidin]-2-one]	6.76
CN=S(C)(=O)c1ccc(OCCN2CCC3(CC2)C(=O)Nc2ccc(C#N)cc23)cc1 (single isomer, unassigned) [Compound 152, (R) or (S)-1′-(2-{4-[methyl(methylimino)oxo-λ^6-sulfanyl]phenoxy}ethyl)-2-oxo-1,2-dihydrospiro[indole-3,4′-piperidine]-5-carbonitrile]	5.82
O=C1Nc2ccc(Cl)cc2C12CCN(CCOc1ccc(C3CCCS3(=O)=O)cc1)CC2 (single isomer, unassigned) [Compound 177, (R) or (S)-2-[4-(2-{5-chloro-2-oxo-1,2-dihydrospiro[indole-3,4′-piperidin]-1′-yl}ethoxy)phenyl]-1λ^6-thiolane-1,1-dione]	6.50
